# Test system: Stress protein genes
# Assay: DNA chip mRNA expression in yeast, stress protein genes (Table 6)
# Assay type: cell-based, Saccharomyces cerevisiae S288C
# Method in brief: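 In this screen, yeast in logarithmic growth are challenged for two hours with a toxic substance at a non-lethal inhibitory concentration. Their mRNA, converted to Cy3- or Cy5-labeled cDNA, hybridizes at 65° C. to a chip spanning every yeast gene, and expression is expressed as a ratio to untreated cells.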
compound,measurement,setting,value
"[Cl][Cd][Cl] [(2), CdCl2]",The level of expressed mRNA in the presence of chemical substance/The level of expressed mRNA in the absence of chemical substance,yeast gene YAL005C,1.6
same,The level of expressed mRNA in the presence of chemical substance/The level of expressed mRNA in the absence of chemical substance,yeast gene YAL015C,1.1
same,The level of expressed mRNA in the presence of chemical substance/The level of expressed mRNA in the absence of chemical substance,yeast gene YBL075C,4.3
same,The level of expressed mRNA in the presence of chemical substance/The level of expressed mRNA in the absence of chemical substance,yeast gene YBL093C,2.0
same,The level of expressed mRNA in the presence of chemical substance/The level of expressed mRNA in the absence of chemical substance,yeast gene YBR044C,1.4
same,The level of expressed mRNA in the presence of chemical substance/The level of expressed mRNA in the absence of chemical substance,yeast gene YBR054W,1.8
same,The level of expressed mRNA in the presence of chemical substance/The level of expressed mRNA in the absence of chemical substance,yeast gene YBR067C,2.5
same,The level of expressed mRNA in the presence of chemical substance/The level of expressed mRNA in the absence of chemical substance,yeast gene YBR072W,17.4
same,The level of expressed mRNA in the presence of chemical substance/The level of expressed mRNA in the absence of chemical substance,yeast gene YBR126C,1.9
same,The level of expressed mRNA in the presence of chemical substance/The level of expressed mRNA in the absence of chemical substance,yeast gene YBR169C,2.1
same,The level of expressed mRNA in the presence of chemical substance/The level of expressed mRNA in the absence of chemical substance,yeast gene YCL035C,2.3
same,The level of expressed mRNA in the presence of chemical substance/The level of expressed mRNA in the absence of chemical substance,yeast gene YCR021C,1.4
same,The level of expressed mRNA in the presence of chemical substance/The level of expressed mRNA in the absence of chemical substance,yeast gene YCR060W,0.7
same,The level of expressed mRNA in the presence of chemical substance/The level of expressed mRNA in the absence of chemical substance,yeast gene YCR083W,2.8
same,The level of expressed mRNA in the presence of chemical substance/The level of expressed mRNA in the absence of chemical substance,yeast gene YDL022W,2.6
same,The level of expressed mRNA in the presence of chemical substance/The level of expressed mRNA in the absence of chemical substance,yeast gene YDL025C,5.0
same,The level of expressed mRNA in the presence of chemical substance/The level of expressed mRNA in the absence of chemical substance,yeast gene YDR033W,1.3
same,The level of expressed mRNA in the presence of chemical substance/The level of expressed mRNA in the absence of chemical substance,yeast gene YDR077W,1.0
same,The level of expressed mRNA in the presence of chemical substance/The level of expressed mRNA in the absence of chemical substance,yeast gene YDR098C,1.4
same,The level of expressed mRNA in the presence of chemical substance/The level of expressed mRNA in the absence of chemical substance,yeast gene YDR155C,1.5
same,The level of expressed mRNA in the presence of chemical substance/The level of expressed mRNA in the absence of chemical substance,yeast gene YDR258C,2.3
same,The level of expressed mRNA in the presence of chemical substance/The level of expressed mRNA in the absence of chemical substance,yeast gene YDR293C,0.9
same,The level of expressed mRNA in the presence of chemical substance/The level of expressed mRNA in the absence of chemical substance,yeast gene YDR436W,0.9
same,The level of expressed mRNA in the presence of chemical substance/The level of expressed mRNA in the absence of chemical substance,yeast gene YDR513W,2.5
same,The level of expressed mRNA in the presence of chemical substance/The level of expressed mRNA in the absence of chemical substance,yeast gene YDR519W,3.2
same,The level of expressed mRNA in the presence of chemical substance/The level of expressed mRNA in the absence of chemical substance,yeast gene YEL030W,0.9
same,The level of expressed mRNA in the presence of chemical substance/The level of expressed mRNA in the absence of chemical substance,yeast gene YEL039C,0.7
same,The level of expressed mRNA in the presence of chemical substance/The level of expressed mRNA in the absence of chemical substance,yeast gene YER042W,2.2
same,The level of expressed mRNA in the presence of chemical substance/The level of expressed mRNA in the absence of chemical substance,yeast gene YER057C,2.0
same,The level of expressed mRNA in the presence of chemical substance/The level of expressed mRNA in the absence of chemical substance,yeast gene YER103W,2.1
same,The level of expressed mRNA in the presence of chemical substance/The level of expressed mRNA in the absence of chemical substance,yeast gene YER125W,1.1
same,The level of expressed mRNA in the presence of chemical substance/The level of expressed mRNA in the absence of chemical substance,yeast gene YFL014W,5.1
same,The level of expressed mRNA in the presence of chemical substance/The level of expressed mRNA in the absence of chemical substance,yeast gene YFL016C,1.0
same,The level of expressed mRNA in the presence of chemical substance/The level of expressed mRNA in the absence of chemical substance,yeast gene YFL020C,1.1
same,The level of expressed mRNA in the presence of chemical substance/The level of expressed mRNA in the absence of chemical substance,yeast gene YFR052W,1.6
same,The level of expressed mRNA in the presence of chemical substance/The level of expressed mRNA in the absence of chemical substance,yeast gene YGL073W,2.1
same,The level of expressed mRNA in the presence of chemical substance/The level of expressed mRNA in the absence of chemical substance,yeast gene YGL115W,0.6
same,The level of expressed mRNA in the presence of chemical substance/The level of expressed mRNA in the absence of chemical substance,yeast gene YGL181W,0.9
same,The level of expressed mRNA in the presence of chemical substance/The level of expressed mRNA in the absence of chemical substance,yeast gene YGR088W,1.2
same,The level of expressed mRNA in the presence of chemical substance/The level of expressed mRNA in the absence of chemical substance,yeast gene YHL028W,0.8
same,The level of expressed mRNA in the presence of chemical substance/The level of expressed mRNA in the absence of chemical substance,yeast gene YHL046C,1.7
same,The level of expressed mRNA in the presence of chemical substance/The level of expressed mRNA in the absence of chemical substance,yeast gene YHR030C,0.8
same,The level of expressed mRNA in the presence of chemical substance/The level of expressed mRNA in the absence of chemical substance,yeast gene YHR057C,1.2
same,The level of expressed mRNA in the presence of chemical substance/The level of expressed mRNA in the absence of chemical substance,yeast gene YHR104W,4.1
same,The level of expressed mRNA in the presence of chemical substance/The level of expressed mRNA in the absence of chemical substance,yeast gene YIL011W,0.5
same,The level of expressed mRNA in the presence of chemical substance/The level of expressed mRNA in the absence of chemical substance,yeast gene YIL033C,1.3
same,The level of expressed mRNA in the presence of chemical substance/The level of expressed mRNA in the absence of chemical substance,yeast gene YIR037W,2.2
same,The level of expressed mRNA in the presence of chemical substance/The level of expressed mRNA in the absence of chemical substance,yeast gene YIR038C,3.5
same,The level of expressed mRNA in the presence of chemical substance/The level of expressed mRNA in the absence of chemical substance,yeast gene YJL128C,1.4
same,The level of expressed mRNA in the presence of chemical substance/The level of expressed mRNA in the absence of chemical substance,yeast gene YJL158C,0.6
same,The level of expressed mRNA in the presence of chemical substance/The level of expressed mRNA in the absence of chemical substance,yeast gene YJL159W,1.3
same,The level of expressed mRNA in the presence of chemical substance/The level of expressed mRNA in the absence of chemical substance,yeast gene YJL165C,0.8
same,The level of expressed mRNA in the presence of chemical substance/The level of expressed mRNA in the absence of chemical substance,yeast gene YJR045C,1.9
same,The level of expressed mRNA in the presence of chemical substance/The level of expressed mRNA in the absence of chemical substance,yeast gene YJR090C,1.0
same,The level of expressed mRNA in the presence of chemical substance/The level of expressed mRNA in the absence of chemical substance,yeast gene YKL161C,0.8
same,The level of expressed mRNA in the presence of chemical substance/The level of expressed mRNA in the absence of chemical substance,yeast gene YKL163W,1.4
same,The level of expressed mRNA in the presence of chemical substance/The level of expressed mRNA in the absence of chemical substance,yeast gene YKL164C,1.1
same,The level of expressed mRNA in the presence of chemical substance/The level of expressed mRNA in the absence of chemical substance,yeast gene YKL210W,1.7
same,The level of expressed mRNA in the presence of chemical substance/The level of expressed mRNA in the absence of chemical substance,yeast gene YKR053C,2.0
same,The level of expressed mRNA in the presence of chemical substance/The level of expressed mRNA in the absence of chemical substance,yeast gene YLL024C,1.6
same,The level of expressed mRNA in the presence of chemical substance/The level of expressed mRNA in the absence of chemical substance,yeast gene YLL026W,2.9
same,The level of expressed mRNA in the presence of chemical substance/The level of expressed mRNA in the absence of chemical substance,yeast gene YLL039C,1.0
same,The level of expressed mRNA in the presence of chemical substance/The level of expressed mRNA in the absence of chemical substance,yeast gene YLL060C,4.2
same,The level of expressed mRNA in the presence of chemical substance/The level of expressed mRNA in the absence of chemical substance,yeast gene YLR006C,0.7
same,The level of expressed mRNA in the presence of chemical substance/The level of expressed mRNA in the absence of chemical substance,yeast gene YLR109W,2.9
same,The level of expressed mRNA in the presence of chemical substance/The level of expressed mRNA in the absence of chemical substance,yeast gene YLR259C,1.0
same,The level of expressed mRNA in the presence of chemical substance/The level of expressed mRNA in the absence of chemical substance,yeast gene YML007W,0.8
same,The level of expressed mRNA in the presence of chemical substance/The level of expressed mRNA in the absence of chemical substance,yeast gene YML070W,1.7
same,The level of expressed mRNA in the presence of chemical substance/The level of expressed mRNA in the absence of chemical substance,yeast gene YMR021C,0.7
same,The level of expressed mRNA in the presence of chemical substance/The level of expressed mRNA in the absence of chemical substance,yeast gene YMR173W,3.6
same,The level of expressed mRNA in the presence of chemical substance/The level of expressed mRNA in the absence of chemical substance,yeast gene YMR186W,1.4
same,The level of expressed mRNA in the presence of chemical substance/The level of expressed mRNA in the absence of chemical substance,yeast gene YNL064C,1.8
same,The level of expressed mRNA in the presence of chemical substance/The level of expressed mRNA in the absence of chemical substance,yeast gene YNL160W,3.7
same,The level of expressed mRNA in the presence of chemical substance/The level of expressed mRNA in the absence of chemical substance,yeast gene YNL241C,2.5
same,The level of expressed mRNA in the presence of chemical substance/The level of expressed mRNA in the absence of chemical substance,yeast gene YNR076W,1.3
same,The level of expressed mRNA in the presence of chemical substance/The level of expressed mRNA in the absence of chemical substance,yeast gene YOL064C,2.1
same,The level of expressed mRNA in the presence of chemical substance/The level of expressed mRNA in the absence of chemical substance,yeast gene YOL161C,1.1
same,The level of expressed mRNA in the presence of chemical substance/The level of expressed mRNA in the absence of chemical substance,yeast gene YOR008C,0.8
same,The level of expressed mRNA in the presence of chemical substance/The level of expressed mRNA in the absence of chemical substance,yeast gene YOR009W,0.8
same,The level of expressed mRNA in the presence of chemical substance/The level of expressed mRNA in the absence of chemical substance,yeast gene YOR010C,0.7
same,The level of expressed mRNA in the presence of chemical substance/The level of expressed mRNA in the absence of chemical substance,yeast gene YOR027W,2.4
same,The level of expressed mRNA in the presence of chemical substance/The level of expressed mRNA in the absence of chemical substance,yeast gene YOR208W,1.0
same,The level of expressed mRNA in the presence of chemical substance/The level of expressed mRNA in the absence of chemical substance,yeast gene YPL059W,0.9
same,The level of expressed mRNA in the presence of chemical substance/The level of expressed mRNA in the absence of chemical substance,yeast gene YPL106C,1.7
same,The level of expressed mRNA in the presence of chemical substance/The level of expressed mRNA in the absence of chemical substance,yeast gene YPL140C,1.3
same,The level of expressed mRNA in the presence of chemical substance/The level of expressed mRNA in the absence of chemical substance,yeast gene YPL194W,1.4
same,The level of expressed mRNA in the presence of chemical substance/The level of expressed mRNA in the absence of chemical substance,yeast gene YPL223C,20.0
same,The level of expressed mRNA in the presence of chemical substance/The level of expressed mRNA in the absence of chemical substance,yeast gene YPL240C,1.4
same,The level of expressed mRNA in the presence of chemical substance/The level of expressed mRNA in the absence of chemical substance,yeast gene YPR005C,0.8
same,The level of expressed mRNA in the presence of chemical substance/The level of expressed mRNA in the absence of chemical substance,yeast gene YPR026W,1.2
